Data on 13 compounds can be found in patent publication US12303509B2, “Compounds for the treatment of BRAF-associated diseases and disorders” (Pfizer Inc., priority 2020, dated 2025).

The nature of data set [1]: MDR1 LLC-PK1 and BCRP MDCKII permeability assay: permeability coefficient (Papp). It is filed as in vitro ADME. From the text:
(§1) Final organic concentration in the assay was 1%.

Data set [2] concerns the target full-length FLAG-tagged B-Raf(V600E) (Homo sapiens (Human), UniProt P15056, V600E). Description: BRAF V600E enzyme assay (TR-FRET competitive displacement). It is filed as binding. The gist of the method: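 Displacement of 50 nM Tracer 1710 from 5 nM full-length N-terminally FLAG-tagged B-Raf(V600E), detected by TR-FRET with 0.5 nM Eu anti-FLAG antibody, in 25 mM HEPES pH 7.4, 10 mM MgCl2, 2% DMSO; 60 min at ~22 °C. Compounds 11-point, 3-fold from 10 μM; IC50 from 4-parameter fit at 50 POC.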
For orientation: In TR-FRET formats the signal depends on donor and acceptor labels being close together.

The next data set deals with H1755 cells. Put plainly: Cellular phospho-ERK inhibition assay in H1755 cells. In kind it is cell-based. Particulars: Homo sapiens, NCI-H1755, 2 hours treatment, read-out: H1755 Cell IC50. The gist of the method: (§2)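 A375 (DMEM) or H1755 (RPMI) cells in 10% FBS treated 2 h at 37 °C with 9-point series, 66 pM–10 μM, 0.25% DMSO. Phospho-ERK1/2 (Thr202/Tyr204) measured by In Cell Western, normalised to GAPDH and to DMSO and 10 μM binimetinib controls; IC50 by 4-parameter fit.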

In the next data set the target is P-gp (MDR1) (Homo sapiens (Human), UniProt P08183). Put plainly: MDR1 LLC-PK1 permeability assay: efflux ratio. It is filed as in vitro ADME. Particulars: pig.
P-gp (MDR1), sequence (P08183 whole entry, species assumed): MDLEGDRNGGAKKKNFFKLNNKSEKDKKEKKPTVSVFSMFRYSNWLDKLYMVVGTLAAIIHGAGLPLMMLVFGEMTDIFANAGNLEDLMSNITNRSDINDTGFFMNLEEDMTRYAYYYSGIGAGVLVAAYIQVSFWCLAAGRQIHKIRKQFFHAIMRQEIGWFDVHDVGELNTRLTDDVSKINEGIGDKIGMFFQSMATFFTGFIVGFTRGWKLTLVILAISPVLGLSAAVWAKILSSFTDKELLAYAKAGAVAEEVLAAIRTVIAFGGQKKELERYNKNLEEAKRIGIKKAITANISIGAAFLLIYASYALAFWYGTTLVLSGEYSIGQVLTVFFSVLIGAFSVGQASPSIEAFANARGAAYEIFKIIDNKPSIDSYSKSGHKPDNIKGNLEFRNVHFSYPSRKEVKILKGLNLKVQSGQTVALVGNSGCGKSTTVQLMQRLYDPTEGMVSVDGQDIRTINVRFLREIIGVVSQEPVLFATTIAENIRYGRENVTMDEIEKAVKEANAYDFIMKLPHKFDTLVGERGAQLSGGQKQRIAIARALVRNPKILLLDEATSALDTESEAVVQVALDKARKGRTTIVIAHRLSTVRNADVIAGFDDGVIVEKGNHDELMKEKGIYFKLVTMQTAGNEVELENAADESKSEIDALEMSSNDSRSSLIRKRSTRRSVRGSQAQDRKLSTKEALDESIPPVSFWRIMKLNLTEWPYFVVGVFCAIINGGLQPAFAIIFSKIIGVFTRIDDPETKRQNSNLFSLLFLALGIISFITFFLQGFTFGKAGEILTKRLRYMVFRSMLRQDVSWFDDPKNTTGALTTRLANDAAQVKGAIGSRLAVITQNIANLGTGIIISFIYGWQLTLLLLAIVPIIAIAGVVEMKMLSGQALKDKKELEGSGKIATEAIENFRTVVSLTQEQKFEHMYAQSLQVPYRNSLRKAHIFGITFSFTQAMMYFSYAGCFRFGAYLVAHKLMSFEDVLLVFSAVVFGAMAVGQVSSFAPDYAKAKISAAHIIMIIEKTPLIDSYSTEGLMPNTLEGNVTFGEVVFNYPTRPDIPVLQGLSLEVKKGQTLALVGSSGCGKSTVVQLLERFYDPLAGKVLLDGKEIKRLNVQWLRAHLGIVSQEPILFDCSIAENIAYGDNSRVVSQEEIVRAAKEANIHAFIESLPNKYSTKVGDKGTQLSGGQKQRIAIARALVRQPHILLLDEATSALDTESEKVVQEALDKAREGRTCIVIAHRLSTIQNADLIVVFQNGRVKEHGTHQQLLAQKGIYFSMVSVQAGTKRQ
Excerpt: as §1

A further data set deals with A375 cells. Description: Cellular phospho-ERK inhibition assay in A375 cells. Conditions: Homo sapiens, A-375, A375 cells (head prints A357), 2 hours treatment, read-out: A357 cell IC50. It is filed as cell-based. The gist of the method: as §2
In a further data set the target is BCRP (Homo sapiens (Human), UniProt Q9UNQ0). Put plainly: BCRP MDCKII permeability assay: efflux ratio. In kind it is in vitro ADME. Particulars: dog.
BCRP, sequence (Q9UNQ0 whole entry): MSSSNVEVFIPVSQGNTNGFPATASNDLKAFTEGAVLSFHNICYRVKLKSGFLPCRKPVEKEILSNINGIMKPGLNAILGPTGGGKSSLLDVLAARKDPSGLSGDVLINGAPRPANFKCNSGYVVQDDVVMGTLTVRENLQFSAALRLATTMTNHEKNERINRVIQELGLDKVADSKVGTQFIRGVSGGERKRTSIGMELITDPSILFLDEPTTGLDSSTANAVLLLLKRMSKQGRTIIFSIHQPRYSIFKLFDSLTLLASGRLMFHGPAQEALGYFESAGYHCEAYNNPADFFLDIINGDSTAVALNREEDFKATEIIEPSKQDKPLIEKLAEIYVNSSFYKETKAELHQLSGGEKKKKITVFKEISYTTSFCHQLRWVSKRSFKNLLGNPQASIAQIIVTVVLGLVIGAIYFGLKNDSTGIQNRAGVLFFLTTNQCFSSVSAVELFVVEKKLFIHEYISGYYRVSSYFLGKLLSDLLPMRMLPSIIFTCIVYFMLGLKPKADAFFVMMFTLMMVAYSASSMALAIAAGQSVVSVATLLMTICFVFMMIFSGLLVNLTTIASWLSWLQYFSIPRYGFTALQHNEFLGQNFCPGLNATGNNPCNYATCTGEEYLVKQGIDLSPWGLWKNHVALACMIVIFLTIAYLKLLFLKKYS
Where [3] appears, read: averaged IC50, TR-FRET tracer displacement, 60 min.

The structures appear in SMILES notation. Structures can show the parent of a compound that is named as a salt. Where two headings read alike, the source gives them in different places.

full-length FLAG-tagged B-Raf(V600E), sequence (P15056 whole entry V600E): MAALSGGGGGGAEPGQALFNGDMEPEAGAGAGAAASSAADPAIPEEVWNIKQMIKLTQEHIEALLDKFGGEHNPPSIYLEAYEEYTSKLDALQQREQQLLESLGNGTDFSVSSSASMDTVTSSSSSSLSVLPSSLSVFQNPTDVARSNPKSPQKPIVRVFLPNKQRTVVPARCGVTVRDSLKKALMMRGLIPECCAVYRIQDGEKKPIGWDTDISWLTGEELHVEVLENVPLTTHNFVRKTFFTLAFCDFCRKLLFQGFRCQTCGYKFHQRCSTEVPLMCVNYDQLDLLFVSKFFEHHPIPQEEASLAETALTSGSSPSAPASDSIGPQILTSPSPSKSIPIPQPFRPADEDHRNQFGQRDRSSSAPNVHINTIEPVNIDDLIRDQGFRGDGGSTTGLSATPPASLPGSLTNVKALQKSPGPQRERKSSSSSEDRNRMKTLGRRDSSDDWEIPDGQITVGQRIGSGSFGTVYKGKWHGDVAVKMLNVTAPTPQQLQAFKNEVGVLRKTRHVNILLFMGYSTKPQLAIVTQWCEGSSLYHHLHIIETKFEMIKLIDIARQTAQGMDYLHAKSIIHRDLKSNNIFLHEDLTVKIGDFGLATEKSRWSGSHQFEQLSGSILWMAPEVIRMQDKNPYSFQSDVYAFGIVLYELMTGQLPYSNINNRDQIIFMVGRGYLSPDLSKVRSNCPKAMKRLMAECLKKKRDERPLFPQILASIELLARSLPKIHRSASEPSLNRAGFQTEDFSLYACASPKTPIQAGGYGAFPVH

In turn, `Cn1cnc2ccc(Oc3c(F)ccc(NS(=O)(=O)N4CC[C@@H](OC(F)F)C4)c3Cl)c(F)c2c1=O` [Example 66, (R)-N-(2-chloro-4-fluoro-3-((5-fluoro-3-methyl-4-oxo-3,4-dihydroquinazolin-6-yl)oxy)phenyl) 3-(difluoromethoxy)pyrrolidine-1-sulfonamide] gave a Papp at 2 h, 1 µM in data set [1] of 25 ×10⁻⁶ cm/s. For the same compound, the IC50 was determined as 4 nM in data set [2], 44 nM in the data set on H1755 cells and 6 nM in the data set with A375 cells. The efflux ratio at 2 h, 1 µM came to 2.2 at P-gp (MDR1) and 3.1 at BCRP.

In data set [1], `Cn1cnc2ccc(Oc3c(F)ccc(NS(=O)(=O)N4CC5CC4C5)c3Cl)c(Cl)c2c1=O` [Example 67, N-(2-chloro-3-((5-chloro-3-methyl-4-oxo-3,4-dihydroquinazolin-6-yl)oxy)-4-fluorophenyl)-2-azabicyclo[2.1.1]hexane-2-sulfonamide] yielded a Papp at 2 h, 1 µM of 24 ×10⁻⁶ cm/s. In addition, the values for the IC50 (in data set [2]; in the data set with H1755 cells; with A375 cells) were 2 nM, 76 nM and 8 nM, respectively. The efflux ratio at 2 h, 1 µM at P-gp (MDR1) came out at 1.4; on BCRP, 1.

`CCN(C)S(=O)(=O)Nc1ccc(F)c(Oc2ccc3ncn(C)c(=O)c3c2C)c1Cl` [Example 68, 6-(2-Chloro-3-{[ethyl(methyl)sulfamoyl]amino}-6-fluorophenoxy)-3,5-dimethyl-3,4 dihydroquinazolin-4-one] displayed a Papp at 2 h, 1 µM in data set [1] of 25 ×10⁻⁶ cm/s. Further, the IC50 in data set [2] came out at 21 nM; in the data set with H1755 cells, 286 nM; in the data set on A375 cells it was 64 nM. Moreover, the efflux ratio at 2 h, 1 µM at P-gp (MDR1) was determined as 0.7; at BCRP, 1.

With `Cc1c(Oc2c(F)ccc(NS(=O)(=O)N3CCCC3)c2Cl)ccc2ncn(C)c(=O)c12` [Example 69, N-(2-chloro-3-((3,5-dimethyl-4-oxo-3,4-dihydroquinazolin-6-yl)oxy)-4-fluorophenyl)pyrrolidine-1-sulfonamide], the Papp at 2 h, 1 µM in data set [1] was 25 ×10⁻⁶ cm/s. The results for the IC50 (in data set [2]; in the data set on H1755 cells; with A375 cells) were 7 nM, 88 nM and 22 nM, respectively. The efflux ratio at 2 h, 1 µM on P-gp (MDR1) was 0.8; at BCRP, 0.9.

`Cc1c(Nc2c(F)ccc(NS(=O)(=O)N(C)C)c2Cl)ccc2ncn(C)c(=O)c12` [Example 71, N-(2-chloro-3-((3,5-dimethyl-4-oxo-3,4-dihydroquinazolin-6-yl)amino)-4-fluorophenyl)-(N,N-dimethyl)-sulfamide] registered a Papp at 2 h, 1 µM in data set [1] of 40 ×10⁻⁶ cm/s. The IC50 in data set [2] (setting [3]) came to 301 nM; in the data set on H1755 cells, 161 nM; in the data set on A375 cells it was 69 nM. Also, the figures for the efflux ratio at 2 h, 1 µM on P-gp (MDR1) and on BCRP were 1.2 and 0.9, respectively.

As for `CN(C)S(=O)(=O)Nc1ccc(F)c(Nc2ccc3ncn(C)c(=O)c3c2F)c1Cl` [Example 83, N-(2-chloro-4-fluoro-3-((5-fluoro-3-methyl-4-oxo-3,4-dihydroquinazolin-6-yl)amino)phenyl)-(N.N-dimethyl)-sulfamide], the Papp at 2 h, 1 µM in data set [1] was determined as 32 ×10⁻⁶ cm/s. Further, the IC50 in data set [2] (setting [3]) was 67 nM; in the data set on H1755 cells, 155 nM; with A375 cells, 31 nM. For the same compound, the efflux ratio at 2 h, 1 µM was 2.2 on P-gp (MDR1) and 1.9 at BCRP.

In data set [1], `Cc1c(Nc2c(F)ccc(NS(=O)(=O)N3CC[C@H](F)C3)c2Cl)ccc2ncn(C)c(=O)c12` [Example 86, (S)-N-(2-chloro-3-((3,5-dimethyl-4-oxo-3,4-dihydroquinazolin-6-yl)amino)-4-fluorophenyl)-3-fluoropyrrolidine-1-sulfonamide trifluoroacetate] showed an apparent permeability (Papp) at 2 h, 1 µM of 28 ×10⁻⁶ cm/s. In addition, the IC50 in data set [2] (setting [3]) is 42 nM; with H1755 cells, 182 nM; in the data set with A375 cells it was 34 nM. In addition, the efflux ratio at 2 h, 1 µM at P-gp (MDR1) came to 1.9; at BCRP, 1.6.

For the compound `Cc1c(Nc2c(F)ccc(NS(=O)(=O)N3CC4CC3C4)c2Cl)ccc2ncn(C)c(=O)c12` [Example 87, N-(2-chloro-3-((3,5-dimethyl-4-oxo-3,4-dihydroquinazolin-6-yl)amino)-4-fluorophenyl)-2-azabicyclo[2.1.1]hexane-2-sulfonamide trifluoroacetate], in data set [1], the apparent permeability (Papp) at 2 h, 1 µM turned out to be 21 ×10⁻⁶ cm/s. The IC50 in data set [2] (setting [3]) amounted to 33 nM; in the data set with H1755 cells it was 215 nM; with A375 cells it was 73 nM. Also, the efflux ratio at 2 h, 1 µM came out at 1 at P-gp (MDR1) and 0.6 on BCRP.

For the compound `Cc1c(Nc2c(F)ccc(NS(=O)(=O)N3CC[C@@H](OC(F)F)C3)c2Cl)ccc2ncn(C)c(=O)c12` [Example 89], the Papp at 2 h, 1 µM in data set [1] is 21 ×10⁻⁶ cm/s. For the same compound, the IC50 stood at 14 nM in data set [2] (setting [3]), 173 nM in the data set with H1755 cells and 50 nM in the data set on A375 cells. Besides, the values for the efflux ratio at 2 h, 1 µM on P-gp (MDR1) and at BCRP were 1.3 and 1, respectively.

As for `Cc1c(Nc2c(F)ccc(NS(=O)(=O)N3C[C@@H](F)[C@@H](F)C3)c2Cl)ccc2ncn(C)c(=O)c12` [Example 90, (cis)-N-(2-chloro-3-((3,5-dimethyl-4-oxo-3,4-dihydroquinazolin-6-yl)amino)-4-fluorophenyl)-3,4-difluoropyrrolidine-1-sulfonamide], the Papp at 2 h, 1 µM in data set [1] is 31 ×10⁻⁶ cm/s. In addition, the IC50 in data set [2] (setting [3]) came to 9 nM; in the data set on H1755 cells, 127 nM; with A375 cells, 49 nM. The efflux ratio at 2 h, 1 µM at P-gp (MDR1) is 2.3; on BCRP, 3.5.

In turn, `Cc1c(Nc2c(F)ccc(NS(=O)(=O)N3CC4CC4C3)c2Cl)ccc2ncn(C)c(=O)c12` (stereo not drawn) [Example 92, N-(2-chloro-3-((3,5-dimethyl-4-oxo-3,4-dihydroquinazolin-6-yl)amino)-4-fluorophenyl)-3-azabicyclo[3.1.0]hexane-3-sulfonamide] gave a Papp at 2 h, 1 µM in data set [1] of 22 ×10⁻⁶ cm/s. Also, the 50% inhibitory concentration (IC50) came to 8 nM in data set [2] (setting [3]), 35 nM in the data set on H1755 cells and 36 nM in the data set on A375 cells. Besides, the efflux ratio at 2 h, 1 µM at P-gp (MDR1) turned out to be 1.2; on BCRP it was 1.9.

In the case of `Cc1c(Nc2c(F)ccc(NS(=O)(=O)N3CCC(F)(F)C3)c2Cl)ccc2ncn(C)c(=O)c12` [Example 93, N-(2-chloro-3-((3,5-dimethyl-4-oxo-3,4-dihydroquinazolin-6-yl)amino)-4-fluorophenyl)-3,3-difluoropyrrolidine-1-sulfonamide], the Papp at 2 h, 1 µM in data set [1] is 33 ×10⁻⁶ cm/s. For the same compound, the results for the half-inhibitory concentration (IC50) (in data set [2] (setting [3]); in the data set with H1755 cells; in the data set with A375 cells) were 3 nM, 195 nM and 60 nM, respectively. For the same compound, the efflux ratio at 2 h, 1 µM at P-gp (MDR1) is 1.4; on BCRP, 0.8.

For the compound `CCC1CCN(S(=O)(=O)Nc2ccc(F)c(Nc3ccc4ncn(C)c(=O)c4c3Cl)c2Cl)C1` (stereo not drawn) [Example 94, N-(2-chloro-3-((5-chloro-3-methyl-4-oxo-3,4-dihydroquinazolin-6-yl)amino)-4-fluorophenyl)-3-ethylpyrrolidine-1-sulfonamide trifluoroacetate], the Papp at 2 h, 1 µM in data set [1] amounted to 22 ×10⁻⁶ cm/s. Further, the IC50 in data set [2] (setting [3]) came to 20 nM; in the data set with H1755 cells, 281 nM; with A375 cells, 138 nM. For the same compound, the efflux ratio at 2 h, 1 µM on P-gp (MDR1) stood at 0.9; at BCRP, 1.7.

As a reminder, the Papp is the rate of passage across a membrane or cell layer, normalised by area and donor concentration. A high value points to ready permeation. What is called IC50 is the concentration that gives 50% inhibition. The efflux ratio is the permeability from basolateral to apical divided by that in the opposite direction, in the common usage.
